Experimental findings from ChEMBL document CHEMBL1137091, “Carbonic anhydrase inhibitors. Design of selective, membrane-impermeant inhibitors targeting the human tumor-associated isozyme IX” (J Med Chem, 2004) are described below.

Experiment [1] is filed under the species Homo sapiens. Kind of experiment: Relative transport activity for the inhibition of Cl-/NO3- exchange measured for AE1 transfected cells (before and after treatment with CAI). It is filed as functional.
Experiment [2] is filed under the species Homo sapiens. Kind of experiment: Percentage inhibition for the inhibition of Cl-/NO3- exchange measured for AE1 transfected cells (before and after treatment with CAI). It is filed as functional.
The species named for experiment [3] is Homo sapiens. Kind of experiment: Inhibitory concentration for the half maximal inhibition of Cl-/NO3- exchange measured for AE1 transfected cells (before and after treatment with CAI). It is filed as functional.
The target in experiment [4] is Carbonic anhydrase 9 (Homo sapiens, UniProt Q16790).
Description: Inhibition constant evaluated for the inhibition of human CA IX (Carbonic anhydrase IX)
In experiment [5] the target is T1, Carbonic anhydrase 4 (Bos taurus, UniProt Q95323).
T1 sequence (Q95323 whole entry): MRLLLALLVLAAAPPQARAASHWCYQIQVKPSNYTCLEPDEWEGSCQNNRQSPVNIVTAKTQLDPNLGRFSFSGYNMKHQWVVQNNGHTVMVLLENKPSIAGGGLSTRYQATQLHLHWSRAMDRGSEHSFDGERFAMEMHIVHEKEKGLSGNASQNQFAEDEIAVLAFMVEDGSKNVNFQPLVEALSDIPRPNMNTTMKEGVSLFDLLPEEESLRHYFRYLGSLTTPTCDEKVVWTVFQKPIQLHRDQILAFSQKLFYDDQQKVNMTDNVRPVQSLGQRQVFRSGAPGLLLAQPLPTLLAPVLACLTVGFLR
Description: Inhibition constant evaluated for the inhibition of bovine CA IV (Carbonic anhydrase IV)

Experiment [6] addresses Carbonic anhydrase 2 (Homo sapiens, UniProt P00918).
Description: Inhibition constant evaluated for the inhibition of human CA II (Carbonic anhydrase II)
The target of experiment [7] is Carbonic anhydrase 1 (Homo sapiens, UniProt P00915).
Carbonic anhydrase 1, sequence (P00915 whole entry): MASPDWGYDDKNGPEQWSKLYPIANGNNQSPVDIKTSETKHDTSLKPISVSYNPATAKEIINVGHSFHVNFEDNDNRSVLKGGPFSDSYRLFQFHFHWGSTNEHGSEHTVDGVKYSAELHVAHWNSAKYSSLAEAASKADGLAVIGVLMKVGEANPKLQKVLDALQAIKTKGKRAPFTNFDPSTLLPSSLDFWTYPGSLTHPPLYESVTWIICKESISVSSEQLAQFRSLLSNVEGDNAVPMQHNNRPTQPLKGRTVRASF
Description: Inhibition constant evaluated for the inhibition of human CA I (Carbonic anhydrase I)

For orientation: Inhibition means the share of the control response that was lost under treatment. Low readings indicate little suppression, high ones strong suppression. The IC50 is the concentration at which inhibition is half-maximal. Lower therefore signals greater potency. In experiment [1], `CCCCc1cc(-c2ccccc2)cc(CCCC)[n+]1-c1ccc(S(=O)(=O)Nc2nnc(S(N)(=O)=O)s2)cc1.[O-][Cl+3]([O-])([O-])[O-]` returned an Activity of 0.709. In experiment [2], this compound displayed an Inhibition of 34%. In addition, in experiment [3], the IC50 stood at 1510 µM.
Broadly, the Ki is the equilibrium dissociation constant of an inhibitor or competing ligand from its target. Low readings indicate tighter binding, high ones weaker binding. As for `Cc1c2cc(c(C)[n+]1-c1ccc(S(=O)(=O)Nc3nnc(S(N)(=O)=O)s3)cc1)CCCCCCCCC2.[O-][Cl+3]([O-])([O-])[O-]`, the Ki came out at 0.012 µM in experiment [4], 0.0046 µM in experiment [5], 0.00137 µM in experiment [6] and 0.003 µM in experiment [7]. This compound came in with an Activity in experiment [1] of 1.
Take `CCCc1cc(-c2ccccc2)cc(CCC)[n+]1-c1ccc(S(=O)(=O)Nc2nnc(S(N)(=O)=O)s2)cc1.[O-][Cl+3]([O-])([O-])[O-]`: in experiment [1], the Activity is 0.651. In experiment [2], this compound returned an Inhibition of 32%. Inhibition in experiment [3] was half-maximal at 126 µM (IC50).
